In general, MIC refers to the lowest concentration that inhibits growth of the organism. For orientation: GI50 means the concentration giving 50% growth inhibition.

≈ marks a conversion by molar mass, not a printed value. Calls of active or inactive are those of the source. No cut-off for these calls is given here.

The test system of data set [1] is Mycobacterium tuberculosis. Kind of data set: Antimycobacterial activity against Mycobacterium tuberculosis H37Rv assessed as reduction in bacterial growth incubated for 7 days by resazurin based assay. It is filed as functional. Particulars: 168 h. On the technique in general: Resazurin is reduced to fluorescent resorufin, in cell work by metabolically active cells.

The nature of data set [2]: Selectivity index, ratio of GI50 for mouse Macrophage cells to MIC for Mycobacterium tuberculosis H37Rv. It is filed as toxicity.
The nature of data set [3]: Cytotoxicity against mouse macrophage cells assessed as growth inhibition incubated for 48 hrs by resazurin based assay. It is filed as cell-based.
Data set [4] deals with Mycolicibacterium aurum. Kind of data set: Antimycobacterial activity against Mycobacterium aurum assessed as reduction in bacterial growth incubated for 48 hrs by HT-SPOTi assay. It is filed as functional.
The nature of data set [5]: Acute toxicity in Galleria mellonella wax moth larve assessed as mortality by measuring melanization at 12 mg/kg observed for 5 days. It is filed as organism-based. Particulars: in vivo, 120 h.
The subject of data set [6] is Mycobacterium tuberculosis. As to the kind of experiment: Bacteriostatic activity against Mycobacterium tuberculosis H37Rv assessed as reduction in bacterial growth at 0.32 ug/ml incubated for 3 to 4 weeks by time kill assay. It is filed as functional, organism-based.
The test system of data set [7] is Mycolicibacterium aurum. Kind of data set: Antimycobacterial activity against Mycobacterium aurum infected in mouse RAW264.7 cells assessed as reduction in bacterial growth incubated for 48 hrs by HT-SPOTi assay. It is filed as functional.
Data set [8] deals with Mycobacterium tuberculosis. As to the kind of experiment: Antimycobacterial activity against Mycobacterium tuberculosis H37Rv infected in mouse J774.1 cells assessed as reduction in bacterial colony at 1 to 10 times MIC incubated for 72 hrs by colony counting method. It is filed as functional, organism-based.
Data set [9] in a line: Acute toxicity in Galleria mellonella wax moth larve assessed as adverse effect at 12 mg/kg observed for 5 days. It is filed as organism-based. Particulars: in vivo, 120 h.
Data set [10] relates to Mycobacterium tuberculosis. Kind of data set: Bacteriostatic activity against Mycobacterium tuberculosis H37Rv assessed as reduction in bacterial growth at 0.07 ug/ml incubated for 3 to 4 weeks by time kill assay. It is filed as functional, organism-based.
Data set [11] deals with Mycobacterium tuberculosis. Kind of data set: Bactericidal activity against Mycobacterium tuberculosis H37Rv assessed as reduction in bacterial growth at 0.35 ug/ml incubated for 3 to 4 weeks by time kill assay. It is filed as functional, organism-based.

For the molecule `Cc1nn(-c2ccc(Cl)cc2)c(C)c1CNC1CCCCC1`, in data set [1], the MIC is above 25 µg/mL.
In the case of `Cc1cc(CNC2CCCCC2)c(C)n1-c1ccc(C(C)C)cc1`, the selectivity ratio in data set [2] lay within 23 to 48. In addition, the MIC in data set [1] was 0.12 to 0.25 µg/mL (≈ 0.37 to 0.77 µM). The GI50 at 48 h in data set [3] was determined as 5.8 µg/mL (≈ 17.9 µM).
With `Cc1cc(CNCC2CCCCC2)c(C)n1-c1ccc(Cl)cc1`, the selectivity ratio in data set [2] lay within 39 to 195. The MIC in the data set on Mycolicibacterium aurum [4] is 3.9 µg/mL (≈ 11.8 µM); in [1], 0.06 to 0.3 µg/mL (≈ 0.181 to 0.907 µM); in the data set on Mycolicibacterium aurum [7], 1.95 µg/mL (≈ 5.89 µM). Besides, the Activity result in data set [5] and in data set [9] was “Non-Toxic” each time. Moreover, the result in data set [6] was Active. In addition, in data set [8], the inhibition result was “Active”. Moreover, the GI50 at 48 h in data set [3] was determined as 11.7 µg/mL (≈ 35.4 µM).
In the case of `Cc1cc(CN[C@H]2C[C@@H]3CC[C@H]2C3)c(C)n1-c1ccc(Cl)cc1`, the selectivity ratio in data set [2] lay within 47 to 94. In data set [1], the MIC lay in the range of 0.25 to 0.5 µg/mL (≈ 0.76 to 1.52 µM). Moreover, the GI50 at 48 h in data set [3] came to 23.4 µg/mL (≈ 71.1 µM).
Consider `Cc1nn(-c2ccc(Cl)cc2)c(C)c1CNCc1ccccc1`, for which the MIC in [1] was above 25 µg/mL.
For `COc1ccc(-n2c(C)cc(CNC3CCCCC3)c2C)cc1`, the selectivity ratio in data set [2] lay in the range of 16 to 32. In addition, the MIC in data set [1] lay in the range of 0.12 to 0.25 µg/mL (≈ 0.384 to 0.8 µM). Also, in [3], the GI50 at 48 h is 3.9 µg/mL (≈ 12.5 µM).
For `Clc1ccc(-n2cc(CNC3CCCCC3)nn2)cc1`, in data set [1], the MIC is above 25 µg/mL.
`NNC(=O)c1ccncc1` [ISONIAZID]: the minimal inhibitory concentration (MIC) in [1] was 0.24 µg/mL (≈ 1.75 µM). Besides, in data set [8], the inhibition result is “Active”.
`Clc1ccc(-n2cc(CNCc3ccccc3)nn2)cc1`: the MIC in data set [1] is above 25 µg/mL.
Still for that read-out and setting: the result for `Clc1ccc2nc(CNC3CCCCC3)cn2c1` reads above 25 µg/mL; that for `Cc1nn(-c2ccccc2)c(C)c1CNC1CCCCC1`, above 25 µg/mL; that for `CO[C@H]1/C=C/O[C@@]2(C)Oc3c(C)c(O)c4c(O)c(c(/C=N/N5CCN(C)CC5)c(O)c4c3C2=O)NC(=O)/C(C)=C\C=C\[C@H](C)[C@H](O)[C@@H](C)[C@@H](O)[C@@H](C)[C@H](OC(C)=O)[C@@H]1C` [RIFAMPIN], above 0.06 µg/mL.
For the molecule `COc1c(N2C[C@@H]3CCCN[C@@H]3C2)c(F)cc2c(=O)c(C(=O)O)cn(C3CC3)c12`, in [10], the result was inactive. Besides, in data set [8], the inhibition entry is “Active”. For the same molecule, in data set [11], the result was Active.
As to `Clc1ccc2nc(CNCc3ccccc3)cn2c1`, in data set [1], the minimum inhibitory concentration (MIC) is above 25 µg/mL.

Values taken from ChEMBL document CHEMBL4613277, “Improving the Potency of N-Aryl-2,5-dimethylpyrroles against Multidrug-Resistant and Intracellular Mycobacteria” (ACS Med Chem Lett, 2020).
